Reference: publication PMC5728534 (PLoS ONE, 2017)
Changes are numbered by the printed parent chain. Read-outs that look alike come from different tables or passages of the source.

Tests used:
OCT1*8 (Arg488Met) = biological target: T1, OCT1*8 (Arg488Met) (Homo sapiens, UniProt O15245, L160F/R488M); conditions: not statistically significant (P = 0.5)
T1 sequence (O15245 1-554 L160F/R488M): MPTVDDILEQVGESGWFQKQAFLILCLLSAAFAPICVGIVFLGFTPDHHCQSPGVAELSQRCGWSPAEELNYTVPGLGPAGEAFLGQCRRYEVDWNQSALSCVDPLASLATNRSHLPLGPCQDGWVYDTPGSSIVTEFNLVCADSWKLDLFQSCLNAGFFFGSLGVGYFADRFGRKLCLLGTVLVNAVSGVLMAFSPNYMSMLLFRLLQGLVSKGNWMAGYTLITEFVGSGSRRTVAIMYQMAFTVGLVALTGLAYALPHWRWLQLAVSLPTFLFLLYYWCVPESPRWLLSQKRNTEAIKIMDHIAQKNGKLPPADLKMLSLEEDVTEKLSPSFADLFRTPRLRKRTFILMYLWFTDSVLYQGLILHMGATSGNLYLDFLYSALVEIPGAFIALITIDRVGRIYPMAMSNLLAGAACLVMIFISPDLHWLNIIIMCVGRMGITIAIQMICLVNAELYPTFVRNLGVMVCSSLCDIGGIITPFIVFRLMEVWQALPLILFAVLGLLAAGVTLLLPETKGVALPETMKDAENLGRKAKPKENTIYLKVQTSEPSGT
From the text: (§1) HEK293 or CHO cells overexpressing the human OCT1 alleles *1A (characterized by the amino acid substitution Met408Val), *1B, *1C (Phe160Leu), *1D (Pro341Leu/Met408Val), *2 (Met420del), *3 (Arg61Cys), *4 (Gly401Ser), *5 (Gly465Arg/Met420del), *6 (Cys88Arg/Met420del), *7 (Ser14Phe), *8A (Arg488Met), *8B (Arg488Met/Met408Val), *9 (Pro117Leu), *10 (Ser189Leu), *11 (Ile449Thr), *12 (Ser29Leu), or *13 (Thr245Met), the human OCT2 reference and variant alleles (Ala270Ser), human OCT3, and the control cells (transfected with the empty pcDNA5 vector) were generated by targeted chromosomal integration using the Flp-In™ System (Life Technologies, Darmstadt, Germany).
(§2) Six hundred thousand HEK293 or CHO cells were plated per well in 12-well plates (pre-coated with poly-D-lysine) and were grown for 48 hours to reach confluence. Cells were kept at 37°C and 5% CO2 in DMEM (HEK293) or RPMI (CHO), supplemented with 10% FCS, 100 U/ml penicillin, and 100 μg/ml streptomycin. Uptake experiments were performed at pH 7.4 using HBSS supplemented with 10 mM HEPES buffer (herein referred to as HBSS+). […]
(§3) For all transport measurements, the intracellular amount of substrate was normalized to the total amount of protein of the sample as measured using the bicinchoninic acid assay [49].
(§4) For quantification of intracellular substrates, the cell debris were removed by centrifugation at 17,000 x g for 10 min. […]

[1] = set-up: method as in ref 56 = [56]; 56 Pharma ® A. Fachinformation Ranitidin 150–1 A Pharma ® , Ranitidin 300–1 A Pharma ® : Rote Liste ®; 2013 [updated June 2013; cited 2016 21.10.2016].; conditions: cited from earlier work
OCT2 = biological target: T2, OCT2 (Homo sapiens, UniProt O15244, S270A); assay: Ranitidine uptake in HEK293 cells overexpressing OCT2 reference (Ala270); assay type: in vitro ADME; conditions: 1 μM ranitidine, 2 min
T2 construct: expressed in transfected cells; host or cells: HEK293 T-REx (Flp-In)
T2 sequence (O15244 1-555 S270A): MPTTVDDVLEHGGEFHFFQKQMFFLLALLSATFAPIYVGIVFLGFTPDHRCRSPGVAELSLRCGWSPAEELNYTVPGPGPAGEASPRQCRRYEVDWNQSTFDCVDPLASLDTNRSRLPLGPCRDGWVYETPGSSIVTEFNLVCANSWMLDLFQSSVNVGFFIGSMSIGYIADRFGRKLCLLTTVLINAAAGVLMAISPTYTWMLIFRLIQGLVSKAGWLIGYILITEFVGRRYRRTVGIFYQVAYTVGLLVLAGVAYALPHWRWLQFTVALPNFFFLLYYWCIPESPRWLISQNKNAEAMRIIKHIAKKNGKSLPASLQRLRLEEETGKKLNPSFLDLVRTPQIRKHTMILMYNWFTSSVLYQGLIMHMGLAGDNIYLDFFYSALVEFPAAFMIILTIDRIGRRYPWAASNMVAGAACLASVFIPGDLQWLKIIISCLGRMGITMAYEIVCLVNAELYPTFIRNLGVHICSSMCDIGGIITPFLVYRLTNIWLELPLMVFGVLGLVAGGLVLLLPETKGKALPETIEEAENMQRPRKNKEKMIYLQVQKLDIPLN
From the text: as §1, §2, §3, §4

OCT1*1A (Met408Val) = biological target: T3, OCT1*1A (Met408Val) (Homo sapiens, UniProt O15245, L160F/M408V); conditions: 1 and 10 μM ranitidine, 2 min
T3 sequence (O15245 1-554 L160F/M408V): T1 sequence (O15245 1-554 L160F/R488M) with M408V, M488R
From the text: as §1, §2, §3, §4

OCT1*1 = biological target: T4, OCT1*1 (Homo sapiens, UniProt O15245, L160F); assay: Inhibition by ranitidine of OCT1-mediated substrate uptake, reference allele, HEK293 cells; assay type: cell-based; conditions: for inhibition at 2 min: human, HEK293 cells overexpressing OCT1*1 (reference allele); for IC50: OCT1*1, 2 min, HEK293
T4 construct: expressed in transfected cells; host or cells: HEK293 T-REx (Flp-In)
T4 sequence (O15245 1-554 L160F): T1 sequence (O15245 1-554 L160F/R488M) with M488R
From the text: as §1
Cells were kept at 37°C and 5% CO2 in DMEM (HEK293) or RPMI (CHO), supplemented with 10% FCS, 100 U/ml penicillin, and 100 μg/ml streptomycin. Uptake experiments were performed at pH 7.4 using HBSS supplemented with 10 mM HEPES buffer (herein referred to as HBSS+). Cells were washed once with 1 ml pre-warmed HBSS+ buffer (37°C). […] Cells were washed twice with 2 ml ice-cold HBSS+ and lysed in 500 μl lysis buffer.
The intracellular concentration of MPP^+ was determined using liquid scintillation counting of radioactively labeled substrate. To this end, 400 μl cell lysate was measured with 9 ml Aquasafe Plus liquid scintillator using the Scintillation Counter LS6500 (Beckman Coulter, Krefeld, Germany). Intracellular ASP^+ concentrations were determined using fluorescence spectroscopy.
as §3
(§5) For quantification of intracellular substrates, the cell debris were removed by centrifugation at 17,000 x g for 10 min. Four-hundred μl of the supernatant was evaporated to dryness under nitrogen flow at 40°C. The residue was reconstituted in 200 μl 0.1% formic acid and 10 μl were injected into the LC-MS/MS. For the LC-MS/MS analysis an API 4000™ system tandem mass spectrometer (AB SCIEX, Darmstadt, Germany) was used. Samples were separated using a Brownlee SPP RP-Amide Column (4.6x100 mm, 2.7 μm; PerkinElmer), with a SecurityGuard C18, 4x2 mm pre-column (Phenomenex, Aschaffenburg, Germany).
(§6) Nonlinear regression to the Michaelis-Menten equation was performed to determine Km and vmax using GraphPad Prism version 6 (GraphPad Software Inc., La Jolla, CA, USA). Nonlinear regression to the Hill equation v = vmin+(vmax-vmin)/1+([I]/IC50)^-Hillslope was performed to determine IC50 using SigmaPlot version 12.0 (Systat Software, San Jose, California, USA).

OCT1 = conditions: literature data; cited from earlier work
OCT1*1B = biological target: T5, OCT1*1B (Homo sapiens, UniProt O15245, L160F); conditions: for Vmax (±SEM): OCT1*1B reference allele, 10-600 μM ranitidine, control-cell uptake subtracted
T5 sequence (O15245 1-554 L160F): T1 sequence (O15245 1-554 L160F/R488M) with M488R
From the text: as §1
Six hundred thousand HEK293 or CHO cells were plated per well in 12-well plates (pre-coated with poly-D-lysine) and were grown for 48 hours to reach confluence. Cells were kept at 37°C and 5% CO2 in DMEM (HEK293) or RPMI (CHO), supplemented with 10% FCS, 100 U/ml penicillin, and 100 μg/ml streptomycin. Uptake experiments were performed at pH 7.4 using HBSS supplemented with 10 mM HEPES buffer (herein referred to as HBSS+). Cells were washed once with 1 ml pre-warmed HBSS+ buffer (37°C). […] Cells were washed twice with 2 ml ice-cold HBSS+ and lysed in 500 μl lysis buffer.
as §3, §5, §6

In the case of `CNC(=C[N+](=O)[O-])NCCSCc1ccc(CN(C)C)o1` [ranitidine, Ranitidine], the “increase in vmax compared to the reference allele” value (OCT1*8 (Arg488Met)) is listed as 25%, the “dosages exceeding the single dose not associated with a higher prevalence of adverse reactions” value [1] is listed as “more than 20 fold” and the “ranitidine uptake, OCT2-overexpressing compared to control cells” value (OCT2) is listed as 3.3 fold. For the same molecule, the “uptake of ranitidine compared to the reference allele” value (OCT1*1A (Met408Val)) was “no significant difference”, the “induction of morphine uptake” value (OCT1*1; at Cmax of ranitidine, reference allele only, not in OCT1*2) was 41% and the inhibition at 2 min (OCT1*1; pH 7.4, probe metformin (100 μM), read-out: inhibition of metformin uptake) was 50%. For the same molecule, the inhibition at 2 min (OCT1*1; pH 7.4, high concentrations expected in the gastrointestinal tract, all substrates tested, reference allele, read-out: inhibition of substrate uptake) was over 70%, the IC50 (OCT1*1; substrate 0.1 μM MPP+) was 81.9 µM and the IC50 (OCT1*1; substrate 0.1 μM morphine) was 45.5 ± 5.49 µM. The IC50 (OCT1*1; substrate 1 μM ASP+) was 337 µM, the IC50 (OCT1*1; substrate 100 μM metformin) was 20.9 µM and the Km (OCT1) was 70 ± 9 µM. For the same molecule, the “ranitidine uptake, OCT1-overexpressing compared to control cells” value (OCT1*1B; 1 μM ranitidine, 2 min, HEK293) was 7.8 fold, the “intracellular concentration of ranitidine, OCT1-overexpressing cells compared to control cells” value (OCT1*1B; 1 μM ranitidine, after 1 min of incubation, HEK293) was 8.5 fold and the “Vmax (±SEM)” value (OCT1*1B; HEK293, 2 min) was 1125 ± 86.1 pmol x min^-1 x mg protein^-1. For the same molecule, the “Vmax (±SEM)” value (OCT1*1B; HEK293, 2 min, listed as Ranitidine) was 1125 pmol x min^-1 x mg protein^-1 and the vmax (OCT1*1B; wild-type OCT1 (abstract)) was 1125 pmol/min/mg protein.
